{"source": "patent US6936569B2", "about": "“Compositions and methods for protecting cultivated plants from herbicidal injury” (priority 1998, dated 2005)", "key": {"velvetleaf": {"system": "velvetleaf", "conditions": "postemergence application, isoxaflutole 105 g/ha; cited from earlier work"}, "[1]": {"system": "giant foxtail, Setaria faberi Herrm. (SETFA)", "assay": "1998 field trial: weed control, giant foxtail", "type": "in vivo", "conditions": "Table 8: field, 60 DAP", "description": "(§1) Conventional tillage experiments were conducted in 1998 to evaluate the influence of SMS and AFS-MTMS, on corn tolerance and weed control from postemergence applications of isoxaflutole alone and in tank-mixture with metolachlor/benoxacor. Experiments were conducted at the Michigan State University Crop and Soil Science Research Farm at East Lansing, Mich. on Capac sandy clay loam soil (fine-loamy, mixed mesic Acric Ochraqualfs) containing 3.1% organic matter with a pH of 6.3 in 1998.\n(§2) Tillage consisted of moldboard plowing in the fall prior to spring disking and field cultivation. Prior to spring cultivation, 320 kg/ha of 46-0-0 fertilizer was applied broadcast. At planting, 140 kg/ha of 6-24-24 fertilizer was applied as a banded treatment 5 cm below and 5 cm beside the corn seeds. Pioneer 37R71 corn was planted on May 11, 1998 at a rate of 62,000 seeds/ha. Each plot was 10.6 m long and consisted of 4 rows spaced 76 cm apart. […]\n(§3) Corn tolerance was evaluated 30 days after planting (DAP) by visually evaluating plants for bleaching and necrotic symptoms and also by measuring corn height (base of plant to the crown) 40 DAP. Weed control by species was visually evaluated 60 DAP. […] Corn grain yield was determined by harvesting the center two rows of each plot with a plot combine. […]"}, "redroot pigweed": {"system": "redroot pigweed", "conditions": "postemergence application, isoxaflutole 105 g/ha; cited from earlier work"}, "[2]": {"system": "ABUTH - velvet-leaf, Abutilon theophrasti Medicus", "assay": "1998 field trial: weed control, velvetleaf", "type": "in vivo", "conditions": "Table 8: field, 60 DAP", "description": "as §1, §2, §3"}, "[3]": {"system": "ZEAMX - corn, Zea mays L.", "type": "in vivo", "conditions": "Table 8: field; for Corn Height: 40 DAP; for Grain Yield: seed weight adjusted to 15% moisture", "description": "as §1\nTillage consisted of moldboard plowing in the fall prior to spring disking and field cultivation. Prior to spring cultivation, 320 kg/ha of 46-0-0 fertilizer was applied broadcast. At planting, 140 kg/ha of 6-24-24 fertilizer was applied as a banded treatment 5 cm below and 5 cm beside the corn seeds. Pioneer 37R71 corn was planted on May 11, 1998 at a rate of 62,000 seeds/ha. Each plot was 10.6 m long and consisted of 4 rows spaced 76 cm apart.\nThe tillage experiments were conducted as a randomized complete block design in a factorial arrangement with three replications. The factors consisted of herbicide application timing and herbicide treatment. Herbicides were applied when the corn was at the 2-leaf and 4-leaf stages. Corn leaf stages are described as the number of visible leaves. Herbicide treatments included isoxaflutole alone (BALANCE) at 105 g/ha and in combination with 1.1 kg/ha of metolachlor/benoxacor (DUAL II). Each of these treatments were applied either alone or with either SMS or AFS-MTMS. Each repellent was used at a rate of 0.5% v/v. Additional treatments not included in the factorial arrangement were an untreated check and a weed-free check. All herbicides were applied with a tractor mounted, compressed-air sprayer calibrated to deliver […] at 207 kPa using 8003 E flat-fan nozzles.\nCorn tolerance was evaluated 30 days after planting (DAP) by visually evaluating plants for bleaching and necrotic symptoms and also by measuring corn height (base of plant to the crown) 40 DAP. Weed control by species was visually evaluated 60 DAP. Visual evaluations were based on a scale of 0 (no effect) to 100% (complete weed or crop death). Corn grain yield was determined by harvesting the center two rows of each plot with a plot combine. Seed weight was adjusted to 15% moisture.\nData were subjected to analysis of variance and means separated using Fisher's Protected LSD test at α=0.05. Data were combined over years when treatment and/or application timing by year interactions were not significant α=0.05. […] Corn height and yield results were converted to a percent of the weed-free treatment after separation.\nCorn (ZEAMX) in the 2-leaf or 4-leaf stage was treated with herbicidal compositions consisting of BALANCE (isoxaflutole); BALANCE and DUAL II (metolachlor and the safener benoxacor); BALANCE and SMS; BALANCE and AFS-MTMS; BALANCE, DUAL II and SMS; or BALANCE, DUAL, and AFS-MTMS. The percent injury was determined 6 DAT, 12 DAT, and 30 DAP. As weed controls, the annual grasses (ANGR) and common lambsquarters, Chenopodium album L. (CHEAL) were treated with herbicidal compositions consisting of BALANCE; BALANCE and DUAL II; BALANCE and SMS; BALANCE and AFS-MTMS; BALANCE, DUAL II and SMS; or BALANCE, DUAL, and AFS-MTMS. The percent injury for the weed controls was determined 30 DAP."}, "common ragweed": {"system": "common ragweed", "conditions": "postemergence application, isoxaflutole 105 g/ha; cited from earlier work"}, "[4]": {"system": "AMARE redroot pigweed, Amaranthus retroflexus L", "assay": "1998 field trial: weed control, redroot pigweed", "type": "in vivo", "conditions": "Table 8: field, 60 DAP", "description": "as §1, §2, §3"}, "[5]": {"system": "CHEAL - common lambsquarter, Chenopodium album L.", "assay": "1998 field trial: weed control, common lambsquarters", "type": "in vivo", "conditions": "Table 8: field, 60 DAP", "description": "as §1\nTillage consisted of moldboard plowing in the fall prior to spring disking and field cultivation. Prior to spring cultivation, 320 kg/ha of 46-0-0 fertilizer was applied broadcast. […]\nas §3\nCorn (ZEAMX) in the 2-leaf or 4-leaf stage was treated with herbicidal compositions consisting of BALANCE (isoxaflutole); BALANCE and DUAL II (metolachlor and the safener benoxacor); BALANCE and SMS; BALANCE and AFS-MTMS; BALANCE, DUAL II and SMS; or BALANCE, DUAL, and AFS-MTMS. The percent injury was determined 6 DAT, 12 DAT, and 30 DAP. […]"}, "Pioneer 3573 corn": {"system": "Pioneer 3573 corn", "assay": "Greenhouse corn tolerance (visual injury, corn height) after postemergence isoxaflutole with or without metolachlor/benoxacor plus test adjuvants (Example 1)", "type": "in vivo, Zea mays", "conditions": "8 DAT", "description": "Various silicone-based compounds were evaluated for ability to prevent herbicidal injury to the corn when used as repellent adjuvants in herbicide formulations. In previous experiments, it was shown that isoxaflutole in combination with metolachlor and benoxacor applied once corn had emerged caused significant corn injury. The basis of this severe injury is the retention and subsequent absorption of isoxaflutole in the foliar tissue of the corn plant, which is exacerbated by the metolachlor herbicide in the composition. Therefore, to address this problem, a number of silicon-based compounds, which were believed to have repellent properties, were evaluated for the ability to prevent injury to corn plants. The compounds evaluated were an aqueous solution of […] sodium methyl siliconate and 67 weight percent water (“SMS”), an aqueous solution of 35.7 weight percent N-(2-aminoethyl)-3-aminopropyltrimethoxysilane, 58.2 weight percent methyltrimethoxysilane, and 6.1 weight percent water (“AFS-MTMS”), methyltrimethoxysilane (“MTMS”), and phosphonate ester alkyl silicon (“PEAS”). These test adjuvants are commercially available from Dow Corning, Midland, Mich. The test adjuvants were applied in combination with isoxaflutole or isoxaflutole in combination with metolachlor and the safener benoxacor, and the ability of the combination to reduce plant injury by inhibiting retention and subsequent absorption of the herbicide was evaluated.\nPioneer 3573 corn seeds (Pioneer 3573, a product of Pioneer Hi-Bred International, Inc., Des Moines, Iowa) were planted 2.54 cm deep, and velvetleaf and barnyardgrass seeds were planted 1.0 cm deep in 875 ml pots containing BACCTO professional greenhouse potting mix (a product of Michigan Peat Co., Houston, Tex.). The seedlings were grown in a greenhouse maintained at 25° C.±2° C. Natural sunlight was supplemented with light from sodium vapor lamps, which provided a total midday light intensity of 1,000 μmol m^−2 s^−1 photosynthetic photon flux at plant height during a 16 hour photoperiod. Plants were watered daily and fertilized weekly with 50 ml of a water soluble fertilizer solution (400 ppm nitrogen, 400 ppm P2O5, and 400 ppm K2O). […]\nThe herbicide compositions were applied through an 8003 E flat fan nozzle (available from Spraying Systems Co., Wheaton, Ill.) delivering 234 L/ha at a pressure of 172 kPa (25 gallons/acre). Corn tolerance was evaluated 8 days after treatment (DAT) by visually evaluating the plants for bleaching and necrotic symptoms and also by measuring corn height (base of the plant to its crown). […] Corn height was measured in cm and presented as a percent of the non-treated plants, with 0 indicating total reduction in plant height and 100 indicating height equal to the non-treated plants. […]"}, "2-leaf corn": {"system": "2-leaf corn", "assay": "Greenhouse corn tolerance (visual injury, corn height) after isoxaflutole with or without acetochlor/MON-13900 plus adjuvants (Example 3)", "type": "in vivo, Zea mays", "conditions": "Table 9: greenhouse, 8 DAT, isoxaflutole 105 g/ha", "description": "This example was performed as in Example 1, except that adjuvants SMS and AFS-MTMS were added to an isoxaflutole tank-mixture that contained an acetochlor herbicide and the safener MON-13900. As in Example 1, the herbicide applications were made to 2-leaf corn, and the herbicide treatments consisted of isoxaflutole at 105 g/ha and isoxaflutole tank-mixed with 1.8 kg/ha of acetochlor/MON-13900 applied either alone or in combination with either NIS at 0.25% (v/v), SMS at 0.5% (v/v), or AFS-MTMS at 0.5% (v/v).\nThe herbicide compositions were applied through an 8003 E flat fan nozzle delivering 234 L/ha at a pressure of 172 kPa. Corn tolerance was evaluated 8 DAT by visually evaluating the plants for bleaching and necrotic symptoms and also by measuring corn height (base of the plant to its crown). Visual corn injury ratings were based on a scale from 0 to 100, with 0 indicating no effect and 100 indicating plant death. Corn height was measured in cm and presented as a percent of the non-treated plants, with 0 indicating total reduction in plant height and 100 indicating height equal to the non-treated plants. All experiments were conducted twice as completely randomized designs with four replications. Data were subjected to analysis of variance and means separated using Fisher's Protected LSD test at a+0.05. […]"}, "common lambsquarters": {"system": "common lambsquarters", "conditions": "postemergence application, isoxaflutole 105 g/ha; cited from earlier work"}, "[6]": {"conditions": "Table 3: 2-leaf corn, isoxaflutole 105 g/ha, adjuvant at the rate in the Rate column (0.5% v/v)"}}, "note": "Read-outs that look alike come from different tables or passages of the source.", "data": [{"smiles": "CS(=O)(=O)c1cc(C(F)(F)F)ccc1C(=O)c1cnoc1C1CC1", "note": "[Isoxaflutole, 5-cyclopropyl isoxazol-4-4-yl-2-mesyl-trifluoromethylphenyl ketone]", "values": [{"measurement": "control of velvetleaf", "setting": "velvetleaf", "result": "greater than 90%"}, {"measurement": "Weed Control, SETFA", "setting": "[1]; 2-leaf application", "result": 73, "unit": "%"}, {"measurement": "Weed Control, SETFA", "setting": "[1]; 4-leaf application", "result": 70, "unit": "%"}, {"measurement": "control of redroot pigweed", "setting": "redroot pigweed", "result": "greater than 90%"}, {"measurement": "Weed Control, ABUTH", "setting": "[2]; 2-leaf application", "result": 99, "unit": "%"}, {"measurement": "Weed Control, ABUTH", "setting": "[2]; 4-leaf application", "result": 100, "unit": "%"}, {"measurement": "Corn Injury", "setting": "[3]; 2-leaf application, 30 DAP (21 days after application), isoxaflutole 105 g/ha, metolachlor 1121 g/ha, adjuvants 0.5% v/v", "result": 0, "unit": "%"}, {"measurement": "Corn Height", "setting": "[3]; 2-leaf application", "result": 61, "unit": "cm"}, {"measurement": "Grain Yield", "setting": "[3]; 2-leaf application", "result": 10420, "unit": "kg/ha"}, {"measurement": "Corn Injury", "setting": "[3]; 4-leaf application, 30 DAP (15 days after application)", "result": 10, "unit": "%"}, {"measurement": "Corn Height", "setting": "[3]; 4-leaf application", "result": 61, "unit": "cm"}, {"measurement": "Grain Yield", "setting": "[3]; 4-leaf application", "result": 9995, "unit": "kg/ha"}, {"measurement": "control of common ragweed", "setting": "common ragweed", "result": "greater than 90%"}, {"measurement": "Weed Control, AMARE", "setting": "[4]; 2-leaf application", "result": 98, "unit": "%"}, {"measurement": "Weed Control, AMARE", "setting": "[4]; 4-leaf application", "result": 100, "unit": "%"}, {"measurement": "Weed Control, CHEAL", "setting": "[5]; 2-leaf application", "result": 95, "unit": "%"}, {"measurement": "Weed Control, CHEAL", "setting": "[5]; 4-leaf application", "result": 96, "unit": "%"}, {"measurement": "Height, Isoxaflutole", "setting": "Pioneer 3573 corn; [6]", "result": "100 % of control"}, {"measurement": "Injury, Isoxaflutole", "setting": "Pioneer 3573 corn; [6]", "result": 2, "unit": "%"}, {"measurement": "% injury to corn", "setting": "Pioneer 3573 corn; greenhouse, 2-leaf corn, adjuvant rate 0%, isoxaflutole 105 g/ha, metolachlor/benoxacor 1.1 kg/ha, scale 0 no effect to 100 plant death", "result": 2, "unit": "%"}, {"measurement": "Corn Height as a Percent of Control", "setting": "Pioneer 3573 corn; greenhouse, adjuvant rate 0%", "result": "100 % of control height"}, {"measurement": "Height, Isoxaflutole", "setting": "2-leaf corn", "result": "99 % of control"}, {"measurement": "Injury, Isoxaflutole", "setting": "2-leaf corn; NIS 0.25% v/v, SMS or AFS-MTMS 0.5% v/v", "result": 0, "unit": "%"}, {"measurement": "control of common lambsquarters", "setting": "common lambsquarters", "result": "greater than 90%"}]}]}
